Test results from article PMC10233829 (ACS Omega, 2023).
Values after ≈ are worked out from the molar mass of the structure shown. Values joined by “and” are separate entries in the source; they are usually repeats but may differ in a detail not shown here. Identical values can stand only once. Like-named read-outs stand apart in the source and are kept apart here.

Tests used:
[1] = system: M. tuberculosis Spec 210; test: microbe, parasite or virus in culture; type: cell-based, Mycobacterium tuberculosis
[2] = system: IL-6 level in HaCaT cells; test: Interleukin-6 ELISA; type: cell-based, human; details: IC50 concentration, 72 h
Experimental: (§1) The level of interleukin-6 (IL-6) in PC3 and HaCaT cell lines was measured by commercial human IL-6 ELISA kits Diaclon SAS (Besancon Cedex, France). […] The untreated cells were used as the control. The IL-6 level in a cell culture supernatant was measured using an enzyme-linked immunosorbent assay in accordance with the manufacturer’s instruction. The experiment was repeated three times.

[3] = system: PC3 cells; test: Trypan blue exclusion assay; type: cell-based, human; details: for Cell number (% of control) / Cell number x 10^6 / Viability (%): PC3, 72 h, compound at IC50
From the text: (§2) To monitor cell proliferation in response to long-term conjugate treatment, the trypan-blue exclusion assay was further performed. […] Thus, they exerted a cytostatic effect on them, suppressing their growth and proliferation. […]. […] […].
(§3) Figure 9 Trypan blue assay. The effect of compounds 3, 15, and 21 on cell number in PC3 and HaCaT cells. […] Data are expressed as the mean ± SD. ***p ≤ 0.001, **p ≤ 0.002, and *p ≤ 0.01, as compared to the control.
(§4) Figure 10 Trypan blue assay. The effect of compounds 3, 15, and 21 on viability in PC3 and HaCaT cells. […] Data are expressed as the mean ± SD. ***p ≤ 0.001, **p ≤ 0.01, and *p ≤ 0.05, as compared to the control.

[4] = system: HaCaT cells; test: Trypan blue exclusion assay; type: cell-based, human; details: for Cell number (% of control) / Cell number x 10^6: 72 h, compound at IC50; for impact on the number of live human keratinocytes: compounds at their IC50 for PC3 cells (2.02, 15.7, 4.8 μM)
From the text: as §2, §3, §4

[5] = Trypan blue exclusion assay; type: cell-based, human; details: human; HaCaT, 72 h, compound at IC50
From the text: as §2, §3, §4

[6] = system: PC3 cells; test: Annexin V-FITC/PI binding assay, flow cytometry; type: cell-based, human; details: IC50 concentration; for PC3 cells in late apoptosis or necrosis: 72 h; for Dead cells / Early apoptosis / Late apoptosis / Live cells: PC3, 72 h
Experimental: (§5) The PC3 and HaCaT cells were cultured and harvested under the conditions mentioned in the Cell Culture section and seeded in 12-well plates (1 × 10^5 cells per well). […] The apoptotic effect was performed using the annexin V-FITC/propidium iodide (PI) apoptosis assay kit (Becton Dickinson, Pharmingen) according to the manufacturer’s instructions and analyzed by flow cytometry (Becton Dickinson). The cells which were annexin V-FITC-positive and PI-negative were identified as early apoptotic and both annexin V-FITC- and PI-positive as late apoptotic or necrotic. The experiment was repeated three times.

[7] = system: HaCaT cells; test: Annexin V-FITC/PI binding assay, flow cytometry; type: cell-based, human; details: 72 h, IC50 concentration; for Dead cells / Early apoptosis / Late apoptosis / Live cells: HaCaT
Experimental: as §5

[8] = system: P. aeruginosa ATCC 15442 and E. coli ATCC 25922; test: MIC, standard Gram-negative rods as a panel; type: cell-based; details: P. aeruginosa ATCC 15442, E. coli ATCC 25922; for MIC: read-out: MIC against standard Gram-negative rods (range over strains)
[9] = system: S. aureus ATCC 6538 biofilm; test: Biofilm eradication assay (crystal violet); type: cell-based, Staphylococcus aureus; details: 4–2 MIC
Experimental: (§6) Three bacterial strains E. coli ATCC 25922, P. aeruginosa ATCC 15442, and S. aureus ATCC 6538 were used to assign biofilm eradication properties of compounds 5, 10, 11, and CP as the reference drug. To quantify the biomass of the bacteria biofilm, the crystal violet method was used with some modifications.[52] The bacteria were incubated to the mid-log phase, diluted to 103 cfu/mL in brain–heart infusion medium, and seeded in a 96-well plate. Bacterial biofilms were formed by overnight incubation at 37 °C with rotation at 140 rpm. After biofilm formation, all wells were washed with PBS to remove nonadherent bacteria cells. […] The biofilms with tested substances were incubated for 20 h at 37 °C with shaking at 140 rpm. The bacterial biofilm was stained with 0.1% (v/v) CV for 10 min. Afterward, the biofilm was rinsed with PBS and dried. To solubilize the adsorbed crystal violet, wells with stained biofilms were incubated in 30% acetic acid. To estimate the total biofilm biomass, optical density (OD) of the resulting solution was measured at 595 nm. Biofilm assays were repeated at least three times on different days, with two technical replicates assessed each time. A minimum eradication concentration (MBEC) was determined as the lowest concentration of compound, which could damage ≥50% of the formed biofilm structure.

[10] = target: T1, S. aureus topoisomerase IV (Staphylococcus aureus, UniProt P0C1S7+P0C1U9); test: Topoisomerase IV decatenation assay; type: biochemical; details: decatenation of kinetoplast DNA; read-out: IC50 S. aureus topoisomerase IV (converted)
T1 construct: purchased Inspiralis, Norwich, UK
T1 sequence (P0C1U9 whole entry): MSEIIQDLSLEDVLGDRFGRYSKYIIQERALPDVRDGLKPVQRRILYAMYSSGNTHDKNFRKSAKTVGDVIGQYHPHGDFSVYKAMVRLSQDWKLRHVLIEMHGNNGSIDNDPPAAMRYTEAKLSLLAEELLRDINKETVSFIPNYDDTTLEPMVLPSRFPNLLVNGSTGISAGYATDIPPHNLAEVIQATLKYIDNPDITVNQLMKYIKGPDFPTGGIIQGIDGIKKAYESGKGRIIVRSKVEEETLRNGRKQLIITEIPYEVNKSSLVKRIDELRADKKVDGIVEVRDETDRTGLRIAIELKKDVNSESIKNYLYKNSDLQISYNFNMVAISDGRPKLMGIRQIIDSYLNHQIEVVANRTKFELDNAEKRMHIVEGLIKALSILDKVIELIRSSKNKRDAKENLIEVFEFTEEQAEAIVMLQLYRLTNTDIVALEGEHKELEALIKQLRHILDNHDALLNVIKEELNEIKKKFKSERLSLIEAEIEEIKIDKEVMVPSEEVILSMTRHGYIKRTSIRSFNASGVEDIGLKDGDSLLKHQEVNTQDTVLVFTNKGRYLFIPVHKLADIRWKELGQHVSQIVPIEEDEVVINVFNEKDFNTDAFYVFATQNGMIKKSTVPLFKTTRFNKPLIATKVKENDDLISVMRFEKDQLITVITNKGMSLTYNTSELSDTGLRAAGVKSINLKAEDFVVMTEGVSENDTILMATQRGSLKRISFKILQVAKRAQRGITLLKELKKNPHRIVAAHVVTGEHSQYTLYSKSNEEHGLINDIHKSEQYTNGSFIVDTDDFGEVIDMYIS
T1 sequence (P0C1S7 whole entry): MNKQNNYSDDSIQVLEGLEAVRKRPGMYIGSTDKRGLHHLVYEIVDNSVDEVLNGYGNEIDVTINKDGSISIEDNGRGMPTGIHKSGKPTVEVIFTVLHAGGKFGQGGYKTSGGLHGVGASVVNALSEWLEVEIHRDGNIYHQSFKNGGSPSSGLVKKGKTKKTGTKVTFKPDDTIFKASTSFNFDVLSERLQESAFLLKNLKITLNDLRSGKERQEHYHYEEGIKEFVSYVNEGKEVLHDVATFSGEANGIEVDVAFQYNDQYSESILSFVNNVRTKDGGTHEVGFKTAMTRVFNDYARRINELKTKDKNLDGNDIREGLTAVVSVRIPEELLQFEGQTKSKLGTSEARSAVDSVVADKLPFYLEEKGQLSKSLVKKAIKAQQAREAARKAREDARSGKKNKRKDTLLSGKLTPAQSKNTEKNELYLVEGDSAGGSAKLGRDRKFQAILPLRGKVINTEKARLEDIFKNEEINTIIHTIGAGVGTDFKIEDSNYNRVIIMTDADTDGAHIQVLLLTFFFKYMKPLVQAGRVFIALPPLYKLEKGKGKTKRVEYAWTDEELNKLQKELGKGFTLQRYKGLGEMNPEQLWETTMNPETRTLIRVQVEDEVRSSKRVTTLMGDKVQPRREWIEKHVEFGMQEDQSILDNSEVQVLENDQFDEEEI
Experimental: Briefly, 1 U of the enzyme (gyrase or topo IV, Inspiralis. Norwich, UK) isolated from S. aureus converts 0.5 mg of relaxed pBR322 DNA to the supercoiled form (gyrase) or decatenates 200 ng of kinetoplast DNA (topo IV). […] The reactions were terminated by adding an equal volume of STEB buffer (40% sucrose, 100 mM Tris–HCl pH 8, 10 mM EDTA, and 0.5 mg/mL bromophenol blue), followed by extraction with 1 volume of chloroform/isoamyl alcohol (24:1). The samples were vortexed and centrifuged, and 20 μL of the aqueous phase of each sample was loaded onto a 1% agarose gel and left for 30 min prior to electrophoresis to allow diffusion of salt. […] Gels were stained with ethidium bromide and visualized under UV light in a transilluminator (ChemiDoc MP, Bio Rad).

[11] = system: Staphylococci (standard strains); test: MIC, standard Gram-positive strains as a panel; type: cell-based, S. aureus, S. epidermidis; details: for MIC: read-out: MIC toward standard Staphylococci (range over strains)
[12] = system: P. aeruginosa ATCC 15442; test: Bacterial growth curve assay (OD600, 18 h); type: cell-based, Pseudomonas aeruginosa; details: for dose that fully inhibited bacterial growth: P. aeruginosa ATCC 15442, 18 h; for exponential phase shifted to: P. aeruginosa
[13] = target: S. aureus DNA gyrase (Staphylococcus aureus, UniProt P0A0K8+P20831); test: biochemical; details: supercoiling of relaxed pBR322
S. aureus DNA gyrase, sequence (P0A0K8 whole entry): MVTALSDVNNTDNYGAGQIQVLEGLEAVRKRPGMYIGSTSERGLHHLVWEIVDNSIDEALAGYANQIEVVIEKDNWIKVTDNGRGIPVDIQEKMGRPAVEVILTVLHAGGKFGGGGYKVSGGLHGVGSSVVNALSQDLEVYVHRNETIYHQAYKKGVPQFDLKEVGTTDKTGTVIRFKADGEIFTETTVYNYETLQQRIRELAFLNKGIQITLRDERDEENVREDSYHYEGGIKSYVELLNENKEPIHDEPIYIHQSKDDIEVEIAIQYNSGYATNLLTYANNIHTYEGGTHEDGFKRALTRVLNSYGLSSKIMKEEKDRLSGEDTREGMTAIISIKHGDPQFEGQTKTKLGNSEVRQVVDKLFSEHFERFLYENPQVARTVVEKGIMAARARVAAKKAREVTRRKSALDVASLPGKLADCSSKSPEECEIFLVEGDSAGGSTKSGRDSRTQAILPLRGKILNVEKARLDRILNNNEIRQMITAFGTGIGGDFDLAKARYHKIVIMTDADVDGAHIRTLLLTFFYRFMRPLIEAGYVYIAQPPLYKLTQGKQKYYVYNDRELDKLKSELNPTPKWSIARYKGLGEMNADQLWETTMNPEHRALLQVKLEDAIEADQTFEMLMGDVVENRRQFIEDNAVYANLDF
S. aureus DNA gyrase, sequence (P20831 whole entry): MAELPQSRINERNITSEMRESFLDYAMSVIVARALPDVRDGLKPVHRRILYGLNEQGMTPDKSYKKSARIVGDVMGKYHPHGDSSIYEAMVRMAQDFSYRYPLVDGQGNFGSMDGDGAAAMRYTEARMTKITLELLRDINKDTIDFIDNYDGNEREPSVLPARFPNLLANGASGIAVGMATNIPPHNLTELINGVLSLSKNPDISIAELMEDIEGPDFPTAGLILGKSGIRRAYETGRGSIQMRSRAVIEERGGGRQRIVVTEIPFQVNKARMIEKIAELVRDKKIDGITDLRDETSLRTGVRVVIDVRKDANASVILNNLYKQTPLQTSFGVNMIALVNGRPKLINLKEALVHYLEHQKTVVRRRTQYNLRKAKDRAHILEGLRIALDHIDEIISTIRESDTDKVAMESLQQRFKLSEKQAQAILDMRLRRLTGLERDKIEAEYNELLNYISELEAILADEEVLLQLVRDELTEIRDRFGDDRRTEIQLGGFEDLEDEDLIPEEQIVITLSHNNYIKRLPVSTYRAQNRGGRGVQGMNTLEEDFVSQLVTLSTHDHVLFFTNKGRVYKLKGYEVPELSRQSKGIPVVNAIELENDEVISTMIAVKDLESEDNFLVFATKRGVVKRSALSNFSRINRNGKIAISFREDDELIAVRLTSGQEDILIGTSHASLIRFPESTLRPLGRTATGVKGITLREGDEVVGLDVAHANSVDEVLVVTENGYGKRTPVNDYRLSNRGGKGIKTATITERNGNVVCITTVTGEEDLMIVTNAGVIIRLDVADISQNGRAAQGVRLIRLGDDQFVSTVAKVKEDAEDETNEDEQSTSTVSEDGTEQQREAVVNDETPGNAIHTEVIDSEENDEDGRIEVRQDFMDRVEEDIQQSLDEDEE
Experimental: The enzymatic assay was carried using commercial topoisomerases type II as previously described by Alt et al.[55] with some modifications.
Briefly, 1 U of the enzyme (gyrase or topo IV, Inspiralis. Norwich, UK) isolated from S. aureus converts […] of relaxed pBR322 DNA to the supercoiled form (gyrase) or decatenates 200 ng of kinetoplast DNA (topo IV). […] The reactions were terminated by adding an equal volume of STEB buffer (40% sucrose, 100 mM Tris–HCl pH 8, 10 mM EDTA, and 0.5 mg/mL bromophenol blue), followed by extraction with 1 volume of chloroform/isoamyl alcohol (24:1). The samples were vortexed and centrifuged, and 20 μL of the aqueous phase of each sample was loaded onto a 1% agarose gel and left for 30 min prior to electrophoresis to allow diffusion of salt. […] Gels were stained with ethidium bromide and visualized under UV light in a transilluminator (ChemiDoc MP, Bio Rad).

[14] = system: E. coli ATCC 25922 biofilm; test: Biofilm eradication assay (crystal violet); type: cell-based, Escherichia coli; details: 4 MIC
Experimental: as §6

[15] = system: IL-6 level in PC3 cells; test: Interleukin-6 ELISA; type: cell-based, human; details: PC3, IC50 concentration, 72 h
Experimental: as §1

[16] = standard Gram-positive strains of Table 1

O=C(O)c1cn(C2CC2)c2cc(N3CCN(CCCCCCCCCCC(=O)N4CCN(c5cc6c(cc5F)c(=O)c(C(=O)O)cn6C5CC5)CC4)CC3)c(F)cc2c1=O [Compound 21, CP–Undecanoyl–CP Dimer]
fold more effective than the reference tuberculostatics [1]: 8–32 fold | effect on IL-6 in human keratinocytes [2]: stimulated human keratinocytes to produce IL-6 | Cell number (% of control) [3]: 6.22 % of control | Cell number x 10^6 [3]: 0.2 ± 0.03 x 10^6 | Viability (%) [3]: 78 ± 1.50% | Cell number (% of control) [4]: 19.35 % of control | Cell number x 10^6 [4]: 0.3 ± 0.01 x 10^6 | impact on the number of live human keratinocytes [4]: negligible impact | viability at 72 h [5]: 94 ± 4.01% | PC3 cells in late apoptosis or necrosis [6]: 69.29% | Dead cells [6]: 52.91 ± 3.99% | Early apoptosis [6]: 28.22 ± 0.98% and 28.22% | Late apoptosis [6]: 16.28 ± 2.80% | Live cells [6]: 2.59 ± 0.20% | HaCaT cells in late apoptosis/necrosis [7]: 34.95% | Dead cells [7]: 14.24 ± 3.78% | Early apoptosis [7]: 10.52 ± 1.07% | Late apoptosis [7]: 20.71 ± 4.34% | Live cells [7]: 54.53 ± 3.34%

O=C(O)c1cn(C2CC2)c2cc(N3CCN(C(=O)CCCCBr)CC3)c(F)cc2c1=O [Compound 11, 7-[4-(5-Bromopentanoyl)-piperazin-1-yl]-1-cyclopropyl-6-fluoro-4-oxo-1,4-dihydro-quinoline-3-carboxylic Acid]
share of CP potency kept against standard Gram-negative rods [8]: 60% | MIC [8]: 0.025 to 0.1 µg/mL (≈ 0.0506 to 0.202 µM) | elimination of the mature biofilm of S. aureus ATCC 6538 [9]: 19–25% | IC50 [10]: 12.1 µM | fold more active than CP toward standard Staphylococci [11, 16]: 1.25–2.5 fold | dose that fully inhibited bacterial growth [12]: ≥ 0.2 µg/mL | IC50 [13]: 16.2 µM | eradication of the biofilm formed by E. coli [14]: approx. 20% | melting point: 225.7 to 226.2 °C

O=C(O)c1cn(C2CC2)c2cc(N3CCN(C(=O)CCC(F)(F)F)CC3)c(F)cc2c1=O [Compound 15, 7-[4-(4,4,4-Trifluorobutyryl)-piperazin-1-yl]-1-cyclopropyl-6-fluoro-4-oxo-1,4-dihydro-quinoline-3-carboxylic Acid]
decrease of IL-6 release as compared to the control [15]: 1.9 times | effect on IL-6 in human keratinocytes [2]: No significant pro- or anti-inflammatory properties | MIC [11, 16]: 0.2 µg/mL (≈ 0.439 µM) | Cell number (% of control) [3]: 12.04 % of control | Cell number x 10^6 [3]: 0.3 ± 0.08 x 10^6 | Viability (%) [3]: 82 ± 2.64% | Cell number (% of control) [4]: 48.38 % of control | Cell number x 10^6 [4]: 0.8 ± 0.10 x 10^6 | impact on the number of live human keratinocytes [4]: negligible impact | viability at 72 h [5]: 90 ± 3.04% | PC3 cells in late apoptosis or necrosis [6]: 37.64% | Dead cells [6]: 21.15 ± 3.29% | Early apoptosis [6]: 1.15 ± 0.10% | Late apoptosis [6]: 16.49 ± 2.65% | Live cells [6]: 61.21 ± 2.06% | HaCaT cells in late apoptosis/necrosis [7]: did not indicate appreciable apoptosis-inducing action | Dead cells [7]: 0.3 ± 0.01% | Early apoptosis [7]: 11.63 ± 2.93% | Late apoptosis [7]: 0.77 ± 0.05% | Live cells [7]: 87.32 ± 2.20%

O=C(O)c1cn(C2CC2)c2cc(N3CCN(C(=O)C4CC4)CC3)c(F)cc2c1=O [Compound 2, 7-(4-Cyclopropanecarbonyl-piperazin-1-yl)-1-cyclopropyl-6-fluoro-4-oxo-1,4-dihydro-quinoline-3-carboxylic Acid]
share of CP potency kept against standard Gram-negative rods [8]: 30–60% | MIC [8]: 0.025 to 0.2 µg/mL (≈ 0.0626 to 0.501 µM) | IC50 [10]: 23.8 µM | MIC [11]: 0.05 to 0.4 µg/mL (≈ 0.125 to 1 µM) | fold more active than CP toward standard Staphylococci [11, 16]: 1.25–10 fold | IC50 [13]: 22.3 µM

O=C(O)c1cn(C2CC2)c2cc(N3CCN(C(=O)CCCCl)CC3)c(F)cc2c1=O [Compound 5, 7-[4-(4-Chlorobutyryl)-piperazin-1-yl]-1-cyclopropyl-6-fluoro-4-oxo-1,4-dihydro-quinoline-3-carboxylic Acid]
share of CP potency kept against standard Gram-negative rods [8]: 30–60% | MIC [8]: 0.025 to 0.2 µg/mL (≈ 0.0574 to 0.459 µM) | IC50 [10]: 6.19 µM | dose that fully inhibited bacterial growth [12]: ≥ 0.2 µg/mL | exponential phase shifted to ([12]; 0.03 μg/mL): 7 to 12 h | exponential phase shifted to ([12]; 0.05 μg/mL): 8 to 15 h | IC50 [13]: 7.34 µM | eradication of the biofilm formed by E. coli [14]: approx. 20%

O=C(O)c1cn(C2CC2)c2cc(N3CCN(C(=O)CCl)CC3)c(F)cc2c1=O [Compound 3, 7-[4-(2-Chloroacetyl)-piperazin-1-yl]-1-cyclopropyl-6-fluoro-4-oxo-1,4-dihydro-quinoline-3-carboxylic Acid]
fold more effective than the reference tuberculostatics ([1]; M. tuberculosis Spec. 210): 8–32 fold | MIC [8]: ≤ 1 µg/mL | decrease of IL-6 release as compared to the control [15]: 3.5 times | effect on IL-6 in human keratinocytes [2]: stimulated human keratinocytes to produce IL-6 | IC50 [10]: 78.5 µM | decrease of PC3 cell viability ([3]; 72 h, IC50 concentration): 48% | Cell number (% of control) [3]: 1.97 % of control | Cell number x 10^6 [3]: 0.04 ± 0.01 x 10^6 | Viability (%) [3]: 52 ± 2.40% | Cell number (% of control) [4]: 12.15 % of control | Cell number x 10^6 [4]: 0.2 ± 0.01 x 10^6 | impact on the number of live human keratinocytes [4]: negligible impact | viability at 72 h [5]: 75 ± 2.23% | PC3 cells in late apoptosis or necrosis [6]: 78.22% | Dead cells [6]: 66.10 ± 6.31% | Early apoptosis [6]: 1.51 ± 0.04% | Late apoptosis [6]: 12.12 ± 2.18% | Live cells [6]: 20.27 ± 0.45% | HaCaT cells in late apoptosis/necrosis [7]: 47.23% | Dead cells [7]: 9.99 ± 1.17% | Early apoptosis [7]: 10.07 ± 1.22% | Late apoptosis [7]: 37.24 ± 2.27% | Live cells [7]: 42.70 ± 2.81% | IC50 [13]: 61.3 µM

O=C(O)c1cn(C2CC2)c2cc(N3CCN(C(=O)CCCBr)CC3)c(F)cc2c1=O [Compound 10, 7-[4-(4-Bromobutyryl)-piperazin-1-yl]-1-cyclopropyl-6-fluoro-4-oxo-1,4-dihydro-quinoline-3-carboxylic Acid]
share of CP potency kept against standard Gram-negative rods [8]: 60% | MIC [8]: 0.025 to 0.1 µg/mL (≈ 0.052 to 0.208 µM) | IC50 [10]: 10.4 µM | dose that fully inhibited bacterial growth [12]: ≥ 0.2 µg/mL | IC50 [13]: 16.4 µM
